From patent US8193252B1, “Mesoprogestins (progesterone receptor modulators) for the treatment and prevention of benign hormone dependent gynecological disorders” (Bayer Pharma AG, priority 1999, dated 2012)

What was measured:
pregnant guinea pigs = experiment: Abortifacient / labor inducing activity in pregnant guinea pigs; format: in vivo, guinea pig; conditions: for abortifacient activity ED50, guinea pig: s.c., treatment day 43-44 of pregnancy, autopsy day 50
Description: In the guinea pig model which allows a good prediction of the effects in humans with respect to the abortifacient activity (Elger W, Beier S., Chwalisz K, Fähnrich M, Hasan S H, Henderson D, Neef G, Rohde R (1986): Studies on the mechanism of action of progesterone antagonists. J Steroid Biochem 25: 835-845) the mesoprogestins J 867, J 912, J 956, J 1042 lead up to 100 mg/kg/day to a maximal abortion rate of 20%.
(§1) The guinea pig is considered as relevant model of human gestation and parturition (Elger W, Fähnrich M, Beier S, Quing S S, Chwalisz K (1987). Endometrial and myometrial effects of progesterone antagonists in pregnant guinea pigs. Am J Obstet Gynecol 157: 1065-1074; Elger W, Neef G, Beier S, Fähnrich M, Gründel M, Heermann J, Malmendier A, Laurent D, Puri C P, Singh M M, Hasan S H, Becker H (1992). Evaluation of antifertility activities of antigestagens in animal model. In: Puri C P and Van Look P F A (eds), Current Concepts in Fertility Regulation and Reproduction. Wiley Eastern Limited, New Delhi, pp. 303-328; Elger W, Faehnrich M, Beier S, Qing S S, Chwalisz K (1986). Mechanism of action of progesterone antagonists in pregnant guinea pigs. Contraception 6: 47-62; Elger W, Chwalisz K, Faehnrich M, Hasan S H, Laurent D, Beier S, Ottow E, Neef G, Garfield R E (1990). Studies on labor-conditioning and labor-inducing effects of antiprogesterones in animal model. In: Garfield R E (eds), Norwell, pp. 153-175.) The mechanism of abortion of antiprogestins in this species is the initiation of labor and finally the expulsion of the conceptus. Abortifacient effects in the rat during very early pregnancy reflect inhibitory effects on nidation rather than initiation of uterine contractions. Studies in the rat model lead to “overestimation” of the potential of antiprogestins to terminate pregnancy in humans. Conversely, in the guinea pig model, irrespective of the antiprogestin doses, there were high rates of ongoing pregnancies similar to the situation in humans (Elger et al., Current Concepts in Fertility Regulation and Reproduction cited above). Furthermore, in both humans and guinea pigs, there is a strong synergism between antiprogestins and prostaglandins with respect the induction of labor (see the articles cited above and Elger W, Beier S (1983). Prostaglandine and Antigestagene für den Schwangerschaftsabbruch (Prostaglandins and antigestagens for pregnancy termination). German Patent DE 3337450 12; Van Look P, Bygdeman M (1989). Antiprogestational steroids: a new dimension in human fertility regulation. Oxford reviews of reproductive medicine 11: 2-60).
Pregnant guinea pigs were treated on days 43 and 44 of pregnancy and observed until day 50 of gestation. For the effects of various treatments see table 1 and FIG. 2. It is typical for this model that expulsions occur with a delay of several days after treatment. It can be seen that Mesoprogestins have a much reduced abortifacient activity compared to RU486. […] The differences with respect to abortifacient activity seem qualitative ones. It is not possible to overcome the low abortifacient activity of a Mesoprogestin by the use of a higher dose.
FIG. 2 is graphs showing data on the assessment on cumulative rate of abortion until day 50 in guinea pigs treated on days 43 and 44 of pregnancy.

pregnant rats = experiment: Abortifacient activity in pregnant rats; format: in vivo, rat; conditions: s.c.; treatment days 5-7 of pregnancy, autopsy day 9; * SAS, probit procedure
Excerpt: as §1

[1] = biological target: T1, PR (progesterone receptor) (Homo sapiens, UniProt P06401); experiment: Relative binding activity (RBA) at PR, progesterone = 100%; conditions: by Kaufmann
T1 sequence (P06401 1-933): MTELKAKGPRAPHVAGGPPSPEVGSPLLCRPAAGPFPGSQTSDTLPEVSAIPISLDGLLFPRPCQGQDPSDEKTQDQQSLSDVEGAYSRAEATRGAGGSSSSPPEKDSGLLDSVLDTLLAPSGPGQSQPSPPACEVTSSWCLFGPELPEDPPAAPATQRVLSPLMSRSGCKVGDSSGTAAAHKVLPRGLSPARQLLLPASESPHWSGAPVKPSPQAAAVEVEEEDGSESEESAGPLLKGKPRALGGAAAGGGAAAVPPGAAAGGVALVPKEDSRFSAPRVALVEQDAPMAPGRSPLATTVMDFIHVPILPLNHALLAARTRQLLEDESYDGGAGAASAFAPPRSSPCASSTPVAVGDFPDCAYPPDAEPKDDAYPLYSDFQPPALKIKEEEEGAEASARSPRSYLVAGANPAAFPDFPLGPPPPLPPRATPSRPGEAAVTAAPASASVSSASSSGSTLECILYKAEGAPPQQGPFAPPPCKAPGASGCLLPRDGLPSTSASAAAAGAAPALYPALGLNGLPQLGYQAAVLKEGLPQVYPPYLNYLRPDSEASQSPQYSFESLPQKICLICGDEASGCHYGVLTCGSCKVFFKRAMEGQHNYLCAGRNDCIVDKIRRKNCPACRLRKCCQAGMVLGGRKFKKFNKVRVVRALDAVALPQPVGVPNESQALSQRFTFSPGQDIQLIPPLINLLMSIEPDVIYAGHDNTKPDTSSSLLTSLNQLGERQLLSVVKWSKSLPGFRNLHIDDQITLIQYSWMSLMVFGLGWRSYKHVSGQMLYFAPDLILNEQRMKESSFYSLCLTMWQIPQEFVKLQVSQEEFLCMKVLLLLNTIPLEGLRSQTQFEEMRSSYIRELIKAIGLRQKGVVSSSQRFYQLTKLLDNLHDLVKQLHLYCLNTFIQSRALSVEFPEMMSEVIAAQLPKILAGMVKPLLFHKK

GR = biological target: T2, GR (Homo sapiens, UniProt P04150); experiment: Relative binding activity (RBA) at GR, dexamethasone = 100%; conditions: by Kaufmann
T2 sequence (P04150 1-777): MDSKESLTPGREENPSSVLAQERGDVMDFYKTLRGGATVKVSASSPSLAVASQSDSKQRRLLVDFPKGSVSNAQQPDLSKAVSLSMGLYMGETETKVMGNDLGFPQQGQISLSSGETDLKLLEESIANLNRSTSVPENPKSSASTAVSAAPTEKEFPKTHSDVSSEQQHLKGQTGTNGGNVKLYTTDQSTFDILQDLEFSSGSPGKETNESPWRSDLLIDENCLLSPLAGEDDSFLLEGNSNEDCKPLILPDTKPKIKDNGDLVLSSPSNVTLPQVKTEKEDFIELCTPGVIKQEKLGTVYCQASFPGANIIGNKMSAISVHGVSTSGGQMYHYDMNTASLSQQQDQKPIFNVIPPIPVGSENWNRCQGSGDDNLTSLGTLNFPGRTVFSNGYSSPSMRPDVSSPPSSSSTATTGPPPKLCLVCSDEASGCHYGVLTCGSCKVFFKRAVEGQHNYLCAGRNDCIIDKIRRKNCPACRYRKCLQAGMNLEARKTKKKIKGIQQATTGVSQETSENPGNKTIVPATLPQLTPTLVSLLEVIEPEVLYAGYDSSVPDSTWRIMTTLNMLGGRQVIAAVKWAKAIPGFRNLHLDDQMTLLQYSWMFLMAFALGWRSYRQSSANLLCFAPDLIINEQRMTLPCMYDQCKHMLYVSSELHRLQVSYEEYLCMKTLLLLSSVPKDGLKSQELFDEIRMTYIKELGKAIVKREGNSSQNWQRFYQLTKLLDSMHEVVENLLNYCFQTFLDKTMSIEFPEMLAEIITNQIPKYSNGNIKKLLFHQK

cyclic guinea pigs = conditions: cited from earlier work
[2] = as described in DE 43 32 283 / DE 43 32 284; cited from earlier work
[3] = as described in DE 43 32 283 / DE 43 32 284; cited from earlier work; remark: listed apart in the source
[4] = biological target: T3, progesterone receptor (PR) (Oryctolagus cuniculus, UniProt P06186); experiment: McPhail test, PR agonistic (progestagenic) activity in estradiol-primed juvenile rabbits; format: in vivo, rabbit; conditions: 4 days s.c. treatment, absence of progesterone
T3 construct: effects of PR-modulators in the uterus of estrogen primed immature rabbits (McPhail test); from tissue; host or cells: uterus (endometrium) of estradiol-primed juvenile rabbits, in vivo
T3 sequence (P06186 1-930): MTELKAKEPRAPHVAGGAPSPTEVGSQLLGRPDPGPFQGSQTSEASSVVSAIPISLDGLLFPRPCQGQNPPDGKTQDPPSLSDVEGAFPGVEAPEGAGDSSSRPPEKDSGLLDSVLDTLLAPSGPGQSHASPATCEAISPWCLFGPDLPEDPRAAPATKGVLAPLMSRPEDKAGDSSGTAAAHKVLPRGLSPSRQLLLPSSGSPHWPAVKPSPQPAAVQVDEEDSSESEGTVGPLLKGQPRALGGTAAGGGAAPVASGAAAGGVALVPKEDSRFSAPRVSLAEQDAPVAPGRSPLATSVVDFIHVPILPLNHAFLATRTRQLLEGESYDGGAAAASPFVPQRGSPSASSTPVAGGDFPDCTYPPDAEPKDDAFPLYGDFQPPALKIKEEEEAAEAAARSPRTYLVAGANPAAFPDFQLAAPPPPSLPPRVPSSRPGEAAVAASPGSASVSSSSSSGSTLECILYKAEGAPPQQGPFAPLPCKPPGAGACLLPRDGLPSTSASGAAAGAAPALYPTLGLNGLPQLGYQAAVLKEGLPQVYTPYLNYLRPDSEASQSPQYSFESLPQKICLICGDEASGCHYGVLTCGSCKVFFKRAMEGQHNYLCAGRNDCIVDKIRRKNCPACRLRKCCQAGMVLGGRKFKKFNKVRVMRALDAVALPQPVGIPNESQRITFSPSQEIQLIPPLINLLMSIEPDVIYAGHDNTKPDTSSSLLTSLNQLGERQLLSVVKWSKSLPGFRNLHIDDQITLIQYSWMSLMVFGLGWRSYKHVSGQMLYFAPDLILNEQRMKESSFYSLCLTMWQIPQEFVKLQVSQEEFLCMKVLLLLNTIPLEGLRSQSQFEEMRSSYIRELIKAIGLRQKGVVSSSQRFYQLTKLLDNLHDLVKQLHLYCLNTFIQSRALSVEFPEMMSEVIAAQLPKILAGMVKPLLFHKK
Description: In the classical bioassay, the McPhail test, assessing progestagenic and antiprogestagenic effects in rabbits (Selye H., Textbook of Endocrinology, 1947, pp. 345-346), progesterone produces a maximum McPhail score of 4 (by definition).
The PR antagonistic and agonistic properties of mesoprogestins were assessed in estrogen-primed rabbits in the McPhail test according to Selye (Textbook of Endocrinology, 1947, pp. 345-346).

endometriosis = conditions: women treated with danazol; cited from earlier work
menorrhagia = conditions: women with ovulatory menorrhagia, acute administration during bleeding; cited from earlier work

COCC1(O)CCC2C3CCC4=CC(=O)CCC4=C3C(c3ccc(C=NO)cc3)CC21C (stereo not drawn) [J912, 4-[17β-Hydroxy-17α-(methoxymethyl)-3-oxoestra-4,9-dien-11β-yl]benzaldehyd-(1E)-oxim]
abortifacient activity ED50, guinea pig (pregnant guinea pigs): >100 mg/animal/day | ranking of abortifacient activity (pregnant guinea pigs; treated on days 43 and 44 of pregnancy, observed until day 50): RU486>J956>J867, J912>J1042 | abortifacient activity ED50, rat (pregnant rats): 0.36 mg/animal/day | RBA (%) PR [1]: 162% | RBA (%) GR (GR): 16%

CCOC(=O)O/N=C/c1ccc([C@H]2C[C@@]3(C)[C@@H](CC[C@]3(COC)OC)[C@@H]3CCC4=CC(=O)CCC4=C32)cc1 [J 900, 4-[17β-Methoxy-17α-(methoxymethyl)-3-oxoestra-4,9-dien-11β-yl]benzaldehyd-(1E)-[O-(ethoxy)carbonyl]oxim]
uterine weights (cyclic guinea pigs): reduced uterine weights | antiglucocorticoid activity compared to RU 486 [2]: markedly reduced | antiprogestagenic activity [3]: strong

COC[C@]1(OC)CC[C@H]2[C@@H]3CCC4=CC(=O)CCC4=C3[C@@H](c3ccc(/C=N/OC(C)=O)cc3)C[C@@]21C [J 914, 4-[17β-Methoxy-17α-(methoxymethyl)-3-oxoestra-4,9-dien-11β-yl]benzaldehyd-(1E)-(O-acetyl)oxim]
uterine weights (cyclic guinea pigs): reduced uterine weights | antiglucocorticoid activity compared to RU 486 [2]: markedly reduced | antiprogestagenic activity [3]: strong

CN(C)c1ccc([C@H]2C[C@]3(C)[C@@H](CC[C@]3(O)CCCO)[C@@H]3CCC4=CC(=O)CCC4=C32)cc1 [Onapristone, reference compound]
abortifacient activity ED50, guinea pig (pregnant guinea pigs): ca 3 mg/animal/day | abortifacient activity ED50, rat (pregnant rats): 1.71* mg/animal/day | RBA (%) PR [1]: 22% | RBA (%) GR (GR): 39%

CC(=O)[C@H]1CC[C@H]2[C@@H]3CCC4=CC(=O)CC[C@]4(C)[C@H]3CC[C@]12C [Progesterone]
dose at which progestagenic effect / endometrial transformation was observed [4]: ≥ 0.1 mg/rabbit | dose of maximum effect [4]: 1 mg/rabbit | maximum effect, McPhail score [4]: ~4 McPhail score

C#C[C@]1(O)CC[C@H]2[C@@H]3CCC4=Cc5oncc5C[C@]4(C)[C@H]3CC[C@@]21C [danazol]
women with side effects (endometriosis): ≤ 85%

NC[C@H]1CC[C@H](C(=O)O)CC1 [tranexamic acid]
blood loss reduction (menorrhagia): 45%
